This is an account of results in patent US20230000842A1, “METHODS OF TREATING CARTILAGE DISORDERS THROUGH INHIBITION OF CLK AND DYRK” (SAMUMED, LLC, priority 2019, published 2023).

The subject of assay [1] is Wnt pathway activity (SW480 colon carcinoma cells stably expressing the Sp5-Luc reporter). Nature of the assay: Wnt pathway activity screening assay (Sp5-Luc reporter gene assay). As to conditions: Homo sapiens, SW480, Table 4; SW480 cells stably expressing Sp5-Luc reporter, 10-point dose-response from 10 μM, 36 to 48 hours.
Assay [2] addresses CLK3 kinase (Homo sapiens, UniProt P49761). Nature of the assay: CLK3 kinase activity assay (Z-lyte FRET).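 Also: kinase activity read as coumarin/fluorescein emission ratio by FRET, unphosphorylated peptide as 0% and phosphorylated peptide as 100% control, values from non-linear regression of dose-response curves.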 It is filed as biochemical. As to conditions: Z-lyte Ser/Thr 18 peptide, 156 μM ATP, 1 h at room temperature.
Assay [3] addresses CLK2 kinase (Homo sapiens, UniProt P49760). The assay can be described thus: CLK2 kinase activity assay (Z-lyte FRET).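 Also: FRET read-out as coumarin to fluorescein emission ratio, unphosphorylated peptide as 0% and phosphorylated peptide as 100% controls, duplicate reactions, non-linear regression fit of dose-response curves.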 It is filed as biochemical. Conditions: Z-lyte Ser/Thr 6 peptide, 60 μM ATP, 1 h at room temperature.
The test system of assay [4] is primary human mesenchymal stem cells (hMSCs). The assay can be described thus: Chondrogenesis screening using primary human mesenchymal stem cells. In kind it is cell-based. As to conditions: Homo sapiens, Mesenchymal stem cells, hMSC chondrogenesis; for Emax: maximum activity relative to TGF-β3 (10 ng/mL) positive control, read-out: Max. Activity as % TGF-β3 activity; for EC50: concentration required to induce 50% levels of chondrogenesis with TGF-β3 as positive control, read-out: Conc (nM) of 50% TGF-β3 activity. In a few lines: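 Primary hMSCs at passage 3–6 were treated across compound concentrations, with TGF-β3 as positive control. Chondrogenic nodule area per well was normalized to 3 DMSO wells on the same plate (fold over DMSO, 2–3 replicates). EC50, maximum activity and the dose reaching it were derived.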

Chain of CLK2 kinase (P49760 whole entry): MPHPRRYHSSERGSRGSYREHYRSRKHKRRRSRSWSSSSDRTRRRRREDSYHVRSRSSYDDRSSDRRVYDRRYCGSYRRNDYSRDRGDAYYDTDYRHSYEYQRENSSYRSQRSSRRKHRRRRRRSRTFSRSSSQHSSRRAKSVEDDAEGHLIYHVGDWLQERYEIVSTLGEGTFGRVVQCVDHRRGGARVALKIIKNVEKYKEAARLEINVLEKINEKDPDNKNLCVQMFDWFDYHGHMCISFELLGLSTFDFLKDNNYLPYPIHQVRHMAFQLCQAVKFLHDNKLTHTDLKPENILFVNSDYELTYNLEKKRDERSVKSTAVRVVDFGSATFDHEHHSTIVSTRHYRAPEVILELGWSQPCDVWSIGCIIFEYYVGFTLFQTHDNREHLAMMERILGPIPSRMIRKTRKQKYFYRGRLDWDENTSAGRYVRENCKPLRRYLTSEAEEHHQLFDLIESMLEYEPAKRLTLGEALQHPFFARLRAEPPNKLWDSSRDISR
Chain of CLK3 kinase (P49761 whole entry): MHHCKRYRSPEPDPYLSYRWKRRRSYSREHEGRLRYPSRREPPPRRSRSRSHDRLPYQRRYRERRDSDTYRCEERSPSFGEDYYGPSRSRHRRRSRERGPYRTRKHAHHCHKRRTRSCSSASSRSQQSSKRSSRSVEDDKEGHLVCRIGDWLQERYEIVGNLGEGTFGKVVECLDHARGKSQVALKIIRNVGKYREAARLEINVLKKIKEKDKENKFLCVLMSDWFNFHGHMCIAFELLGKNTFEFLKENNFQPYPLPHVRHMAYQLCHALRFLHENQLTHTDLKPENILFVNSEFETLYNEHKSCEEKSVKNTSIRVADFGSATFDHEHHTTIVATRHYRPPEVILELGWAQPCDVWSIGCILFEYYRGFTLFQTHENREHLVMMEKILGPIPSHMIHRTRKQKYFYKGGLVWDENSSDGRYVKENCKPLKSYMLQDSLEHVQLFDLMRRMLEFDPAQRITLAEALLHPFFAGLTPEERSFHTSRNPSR

Consider `CCNCc1cncc(-c2ccc3[nH]nc(-c4cc5cnccc5[nH]4)c3c2)c1` [compound 439], for which the figures for the EC50 in assay [1], in assay [2] and in assay [3] were 1040 nM, 49 nM and 2 nM, respectively. Further, the Emax in assay [4] amounted to 317%.

Take `CN1CCN(c2cncc3[nH]c(-c4n[nH]c5ccc(-c6cncc(NC(=O)CC7CCNCC7)c6)cc45)cc23)CC1` [compound 485]: the EC50 in assay [1] is more than 10000 nM; in assay [2], 303 nM; in assay [3] it was 4 nM. Further, in assay [4], the Emax was found to be 289%.

As for `CN(C)Cc1cncc(-c2ccc3[nH]nc(-c4cc5cccnc5[nH]4)c3n2)c1` [compound 443], the EC50 in assay [1] is more than 10000 nM; in assay [2], 566 nM; in assay [3], 7 nM. Also, in assay [4], the Emax is 37%.

Regarding `c1csc(-c2ccnc3[nH]c(-c4n[nH]c5ccc(-c6cncc(OC7CCNCC7)c6)nc45)cc23)c1` [compound 510], the EC50 in assay [1] was found to be 3550 nM; in assay [2], 1870 nM; in assay [3] it was 16 nM; in assay [4], 300 nM. The Emax in assay [4] turned out to be 51.4%.

For the molecule `Nc1cncc(-c2cnc3[nH]nc(-c4nc5c(-c6ccccc6F)ccnc5[nH]4)c3c2)c1` [compound 168], the EC50 in assay [1] came out at 12.3 nM; in assay [2], 76 nM; in assay [3] it was 33 nM; in assay [4], 300 nM. Besides, the Emax in assay [4] worked out at 59.9%.

In the case of `CCC(=O)Nc1cncc(-c2ccc3[nH]nc(-c4nc5c(-c6cccc(F)c6)ccnc5[nH]4)c3n2)c1` [compound 121], the results for the EC50 in assay [1], in assay [2] and in assay [3] were more than 10000 nM, 30 nM and 3 nM, respectively. For the same molecule, the Emax in assay [4] amounted to 29.3%.

For the molecule `CN1CCCCN(C)c2nccc3[nH]c(nc23)-c2n[nH]c3ccc(cc23)-c2cncc(c2)C1` [compound 617], the EC50 is 577 nM in assay [1], 12 nM in assay [2], 2 nM in assay [3] and 5000 nM in assay [4]. For the same molecule, the Emax in assay [4] came out at 231%.

As for `CCNCc1cncc(-c2ccc3[nH]nc(-c4cc5cccnc5[nH]4)c3n2)c1` [compound 440], the EC50 was determined as 3760 nM in assay [1], 562 nM in assay [2], 3 nM in assay [3] and 10 nM in assay [4]. Besides, the Emax in assay [4] came to 79.9%.

On to `Fc1cccc(-c2cncc3[nH]c(-c4n[nH]c5ncc(-c6cccnc6)cc45)cc23)c1` [compound 300], for which the EC50 in assay [1] came to 572 nM; in assay [2] it was 122 nM; in assay [3], 8 nM. In assay [4], the Emax stood at 35.6%.

On to `CCNCc1cncc(-c2ccc3[nH]nc(-c4cc5ccccc5[nH]4)c3c2)c1` [compound 438], for which the EC50 in assay [1] turned out to be 395 nM; in assay [2], 269 nM; in assay [3] it was 4 nM; in assay [4], 10 nM. In addition, in assay [4], the Emax turned out to be 532%.

Consider `Cc1ccncc1-c1cc2c(-c3nc4c(-c5cc(F)cc(CNS(C)(=O)=O)c5)ccnc4[nH]3)n[nH]c2cn1` [compound 291], for which the EC50 amounted to 109 nM in assay [1], 54 nM in assay [2], 32 nM in assay [3] and 30 nM in assay [4]. Also, the Emax in assay [4] was 70%.

Take `CN1CCN(c2nccc3[nH]c(-c4n[nH]c5ccc(-c6cncc(NC(=O)CC7CCNCC7)c6)cc45)cc23)CC1` [compound 484]: the figures for the EC50 in assay [1], in assay [2] and in assay [3] were more than 10000 nM, 428 nM and 6 nM, respectively. In assay [4], the Emax worked out at 42.8%.

Turning to `CN(C)CCNc1cc(F)cc(-c2ccnc3[nH]c(-c4n[nH]c5ccc(-c6cncc(CN7CCCCC7)c6)nc45)cc23)c1` [compound 514], the EC50 in assay [1] came to 1270 nM; in assay [2] it was 49 nM; in assay [3], 4 nM. In addition, in assay [4], the Emax was 48.5%.

With `Cc1n[nH]c2ccc(-c3cncc(OC[C@H](N)Cc4ccccc4)n3)cc12` [compound 52], the EC50 in assay [1] came to 253 nM; in assay [2], 361 nM; in assay [3], 2 nM; in assay [4], 30 nM. Besides, in assay [4], the Emax is 52.1%.

In the case of `FC1(F)CCN(Cc2cncc(-c3ccc4[nH]nc(-c5cc6c(-c7cccnc7)ccnc6[nH]5)c4c3)c2)C1` [compound 370], the values for the EC50 in assay [1], in assay [2] and in assay [3] were 523 nM, 101 nM and 6 nM, respectively. Moreover, the Emax in assay [4] came out at 20.3%.

In the case of `O=C(Nc1cncc(-c2ccc3[nH]nc(-c4cc5c(-c6ccccc6F)nccc5[nH]4)c3n2)c1)C1CC1` [compound 330], the EC50 in assay [1] is 642 nM; in assay [2] it was 109 nM; in assay [3] it was 12 nM. Further, the Emax in assay [4] worked out at 24.8%.

Take `c1cncc(-c2ccnc3[nH]c(-c4n[nH]c5ncc(-c6cncc(CN7CCCCC7)c6)cc45)cc23)c1` [compound 372]: the EC50 was more than 10000 nM in assay [1], 69 nM in assay [2] and 2 nM in assay [3]. Besides, the Emax in assay [4] was 43.9%.

For `FC1(F)CCN(Cc2cncc(-c3ccc4[nH]nc(-c5cc6c(-c7cccnc7)cncc6[nH]5)c4n3)c2)C1` [compound 371], the EC50 in assay [1] worked out at 3850 nM; in assay [2], 408 nM; in assay [3] it was 11 nM. For the same molecule, the Emax in assay [4] came to 23.3%.

For `CN(C)CCNc1cc(F)cc(-c2ccnc3[nH]c(-c4n[nH]c5cnc(-c6cncc(NC(=O)C(C)(C)C)c6)cc45)cc23)c1` [compound 513], the EC50 in assay [1] is 386 nM; in assay [2], 49 nM; in assay [3] it was 6 nM; in assay [4], 10 nM. Further, in assay [4], the Emax came out at 87.3%.

As to `CC(C)CC(=O)Nc1cncc(-c2cnc3[nH]nc(-c4cc5c(-c6cc(F)cc(CNS(C)(=O)=O)c6)cncc5[nH]4)c3c2)c1` [compound 523], the EC50 in assay [1] was determined as 2510 nM; in assay [2], 81 nM; in assay [3] it was 9 nM. Also, in assay [4], the Emax was 45.5%.

In the case of `CC1CCN(Cc2cncc(-c3ccc4[nH]nc(C(=O)Nc5cccnc5)c4c3)c2)CC1` [compound 98], the EC50 was found to be 7 nM in assay [1], 86 nM in assay [2], 1 nM in assay [3] and 30 nM in assay [4]. Moreover, the Emax in assay [4] turned out to be 94.4%.

Consider `CCNCc1cncc(-c2cc3c(-c4nc5c(-c6ccsc6)nccc5[nH]4)n[nH]c3cn2)c1` [compound 249], for which the EC50 in assay [1] came to 59.3 nM; in assay [2], 30 nM; in assay [3] it was 1 nM; in assay [4] it was 30 nM. Also, the Emax in assay [4] was found to be 67.7%.

As for `CC(C)Nc1cncc(-c2ccc3[nH]nc(-c4cc5c(-c6cccnc6)cncc5[nH]4)c3c2)c1` [compound 360], the EC50 in assay [1] came out at 670 nM; in assay [2], 330 nM; in assay [3], 4 nM. Moreover, the Emax in assay [4] stood at 41.9%.

On to `CN1CCN(c2nccc3[nH]c(-c4n[nH]c5cnc(-c6cncc(N)c6)cc45)cc23)CC1` [compound 472], for which the figures for the EC50 in assay [1], in assay [2] and in assay [3] were more than 10000 nM, 1080 nM and 10 nM, respectively. Besides, the Emax in assay [4] worked out at 49.8%.

`COc1cccc(-c2ccnc3[nH]c(-c4n[nH]c5ccc(-c6cccnc6)nc45)nc23)c1` [compound 297]: the EC50 in assay [1] is 1610 nM; in assay [2], 84 nM; in assay [3] it was 1 nM; in assay [4], 100 nM. Moreover, in assay [4], the Emax stood at 50.5%.

In the case of `CN(C)c1cncc(-c2ccc3[nH]nc(-c4nc5c(-c6cccc(F)c6)ccnc5[nH]4)c3n2)c1` [compound 133], the EC50 in assay [1] was found to be 659 nM; in assay [2], 37 nM; in assay [3], 2 nM; in assay [4], 10 nM. In assay [4], the Emax was determined as 83.8%.

Regarding `CC(C)(C)C(=O)Nc1cncc(-c2ccc3[nH]nc(-c4cc5c(-c6ccncc6)ccnc5[nH]4)c3c2)c1` [compound 390], the EC50 in assay [1] is more than 10000 nM; in assay [2], 137 nM; in assay [3], 11 nM. Further, the Emax in assay [4] was 44.4%.

As for `CCNCc1cncc(-c2ccc3[nH]nc(-c4cc5c(-c6cc(F)cc(CNS(C)(=O)=O)c6)cncc5[nH]4)c3c2)c1` [compound 531], the EC50 in assay [1] was more than 10000 nM; in assay [2] it was 52 nM; in assay [3], 5 nM. Moreover, in assay [4], the Emax worked out at 58%.

Consider `CCC(=O)Nc1cncc(-c2ccc3[nH]nc(-c4nc5c(N6CCCCC6)cncc5[nH]4)c3n2)c1` [compound 206], for which the EC50 in assay [1] was more than 10000 nM; in assay [2], 213 nM; in assay [3], 12 nM; in assay [4] it was 900 nM. Further, the Emax in assay [4] amounted to 69.8%.

As for `CC(C)CC(=O)Nc1cncc(-c2cc3c(-c4cc5c(-c6cc(F)cc(CNS(C)(=O)=O)c6)cncc5[nH]4)n[nH]c3cn2)c1` [compound 524], the EC50 was more than 10000 nM in assay [1], 198 nM in assay [2] and 15 nM in assay [3]. In assay [4], the Emax came to 24.2%.

Take `CC(C)CC(=O)Nc1cncc(-c2ccc3[nH]nc(-c4nc5c(-c6cc(F)cc(NCCN(C)C)c6)cncc5[nH]4)c3c2)c1` [compound 281]: the EC50 worked out at 22 nM in assay [1], 25 nM in assay [2] and 6 nM in assay [3]. Further, the Emax in assay [4] worked out at 82%.

In the case of `CC(C)CC(=O)Nc1cncc(-c2ccc3[nH]nc(-c4cc5c(-c6ccncc6)nccc5[nH]4)c3c2)c1` [compound 387], the EC50 is more than 10000 nM in assay [1], 132 nM in assay [2] and 5 nM in assay [3]. Besides, in assay [4], the Emax is 95.5%.
